Data reported in patent US20220288048A1, “PIMAVANSERIN FOR TREATING SCHIZOPHRENIA OR FOR TREATING PSYCHOSIS SECONDARY TO NEURODEGENERATIVE DISORDERS OR DEPRESSIVE DISORDER” (ACADIA Pharmaceuticals Inc., priority 2019, published 2022).

Tested on: adult schizophrenia patients with a persistent inadequate response to their existing antipsychotic therapy
Test: 6-week study of pimavanserin or placebo added to existing antipsychotic treatment: efficacy rating scales
Assay type: in vivo, human
Description: The effect of pimavanserin as an adjunctive treatment in adult schizophrenia patients with a persistent inadequate response (i.e., partial responders) to their existing antipsychotic therapy was tested. 396 patients with moderate-to-severe psychotic symptoms were randomized to receive either pimavanserin or placebo added to existing antipsychotic treatment. […] Dosages of background oral antipsychotics could not be changed within four weeks of screening and dosages of long-acting injectables (LAI) could not be changed within 16 weeks of screening. […] Patients were administered a daily dose of pimavanserin or a placebo for six weeks. The dose started at 20 mg and could be adjusted to 34 mg or 10 mg between weeks 1 and 3. The majority of patients (56%) completed the study at the highest dose level. Patients were evaluated at baseline and on a weekly basis according to the clinical rating scale Positive and Negative Symptom Scale (PANSS). The PANSS is a 30-item, 7-point rating system that was developed to cover a range of negative symptoms not adequately measured by the Brief Psychiatric Rating Scale. It has sections that specifically measure positive symptoms, negative symptoms, and general psychopathology in schizophrenic subjects. The PANSS is widely used in trials of antipsychotic drug treatment, and has been formally validated for such use. A subset of 5 of the PANSS factors, the […] factors, were also evaluated. Other clinical rating scales that were assessed were the Clinical Global Impression Scale (CGI), Personal and Social Performance Scale (PSP), drug attitude inventory (DAI-10), Karolinska Sleepiness Scale (KSS), Calgary Depression Scale for Schizophrenia (CDSS), 36-item Short Form Physical Health evaluation ([…]) and 36-item Short Form Mental Health evaluation […].

[1] = FAS population, W6, Missing as non-Rsp
[2] = Full Analysis Set, OC, Week 6, listed as PIM
[3] = Full Analysis Set, added to existing antipsychotic
[4] = Sensitivity: MI in FAS, ANCOVA, W6
[5] = Sensitivity: MI in RAND, ANCOVA, W6
[6] = Sensitivity: OC in PP, MMRM, W6

CC(C)COc1ccc(CNC(=O)N(Cc2ccc(F)cc2)C2CCN(C)CC2)cc1 [Pimavanserin, N-(4-Fluorophenylmethyl)-N-(1-methylpiperidin-4-yl)-N′-(4-(2-methylpropyloxy)phenylmethyl)carbamide]
CGI-I 1 or 2 Rsp, (%) [1]: (35.2) % | CGI-I 1 or 2 Rsp, Diff in % (PIM − PBO) [1]: 2.1% | PANSS >= 20% Rsp, (%) [1]: (56.5) % | PANSS >= 20% Rsp, Diff in % (PIM − PBO) [1]: 5.9% | PANSS >= 30% Rsp, (%) [1]: (36.8) % | PANSS >= 30% Rsp, Diff in % (PIM − PBO) [1]: 2.6% | CGI-I 1 or 2 Rsp, (%) (FAS population, W6, OC): (39.3) % | CGI-I 1 or 2 Rsp, Diff in % (PIM − PBO) (FAS population, W6, OC): 4.9% | CGI-I no Chg or Worsened, (%) (FAS population, W6, OC): (27.2) % | CGI-I no Chg or Worsened, Diff in % (PIM − PBO) (FAS population, W6, OC): −0.9% | PANSS >= 20% Rsp, (%) (FAS population, W6, OC): (63.0) % | PANSS >= 20% Rsp, Diff in % (PIM − PBO) (FAS population, W6, OC): 10.6% | PANSS >= 30% Rsp, (%) (FAS population, W6, OC): (41.0) % | PANSS >= 30% Rsp, Diff in % (PIM − PBO) (FAS population, W6, OC): 5.6% | CGI-S score, Change from Baseline to Week 6, Mean (SE) (Full Analysis Set): −0.8 (0.06) | PANSS Marder negative factor score, Change from Baseline to Week 6, Mean (SE) (Full Analysis Set): −3.3 (0.31) | PANSS Marder negative factor score, Week 6, Mean (SE) (Full Analysis Set): 19.2 (0.38) | PANSS negative symptoms scale sub-score, Change from Baseline to Week 6, Mean (SE) (Full Analysis Set): −2.8 (0.28) | PANSS negative symptoms scale sub-score, Week 6, Mean (SE) (Full Analysis Set): 20.3 (0.35) | CGI-S score, Diff in MMRM LSM (SE), pimavanserin − placebo (Full Analysis Set, OC, Week 6): −0.1 (0.08) | CGI-S score, Effect Size (Cohen's d) (Full Analysis Set, OC, Week 6): 0.200 | PANSS Marder negative factor score, Diff in MMRM LSM (SE), pimavanserin − placebo (Full Analysis Set, OC, Week 6): −0.9 (0.41) | PANSS Marder negative factor score, Effect Size (Cohen's d) (Full Analysis Set, OC, Week 6): 0.218 | PANSS negative symptoms scale sub-score, Diff in MMRM LSM (SE), pimavanserin − placebo (Full Analysis Set, OC, Week 6): −0.7 (0.37) | PANSS negative symptoms scale sub-score, Effect Size (Cohen's d) (Full Analysis Set, OC, Week 6): 0.206 | PANSS total score, Diff in MMRM LSM (SE), pimavanserin − placebo (Full Analysis Set, OC, Week 6): −2.1 (1.24) | PANSS total score, Effect Size (Cohen's d) (Full Analysis Set, OC, Week 6): 0.173 | CGI-S score, Diff in MMRM LSM (SE), pimavanserin − placebo [2]: −0.1 | CGI-S score, Effect Size (Cohen's d) [2]: 0.20 | PANSS Marder negative factor score, Diff in MMRM LSM (SE), pimavanserin − placebo [2]: −0.9 | PANSS Marder negative factor score, Effect Size (Cohen's d) [2]: 0.22 | PANSS negative symptoms scale sub-score, Diff in MMRM LSM (SE), pimavanserin − placebo [2]: −0.7 | PANSS negative symptoms scale sub-score, Effect Size (Cohen's d) [2]: 0.21 | PANSS total score, Diff in MMRM LSM (SE), pimavanserin − placebo [2]: −2.1 | PANSS total score, Effect Size (Cohen's d) [2]: 0.17 | CGI-S score, Week 6, Mean (SE) [3]: 3.8 (0.07) | PANSS total score, Change from Baseline to Week 6, Mean (SE) [3]: −15.3 (0.93) | PANSS total score, Week 6, Mean (SE) [3]: 72.7 (1.04) | Positive or negative symptoms, difference between treatment groups (North America): No significant differences | Clinical Global Impressions-Severity, LS Mean Change at Week 6 (North America subgroup): −0.7 | PANSS Total Score, LS Mean Change at Week 6 (North America subgroup): −14.2 | Clinical Global Impressions-Severity, Cohen's d Effect Size (North America subgroup, Week 6): −0.144 | Clinical Global Impressions-Severity, LS Mean (SE) Difference (North America subgroup, Week 6): 0.1 (0.15) | PANSS Total Score, Cohen's d Effect Size (North America subgroup, Week 6): −0.229 | PANSS Total Score, LS Mean (SE) Difference (North America subgroup, Week 6): 2.6 (2.74) | PANSS Total, LSM Change from Baseline at W6 (Sensitivity: MI in FAS, ANCOVA): −15.3 | PANSS Total, Effect Size [4]: 0.16 | PANSS Total, Treatment group Comparison (PIM-PBO) LSM [4]: −1.9 | PANSS Total, LSM Change from Baseline at W6 (Sensitivity: MI in RAND, ANCOVA): −15.2 | PANSS Total, Effect Size [5]: 0.15 | PANSS Total, Treatment group Comparison (PIM-PBO) LSM [5]: −1.9 | PANSS Total, LSM Change from Baseline at W6 (Sensitivity: OC ANCOVA): −15.3 | PANSS Total, Effect Size (Sensitivity: OC ANCOVA, W6): 0.16 | PANSS Total, Treatment group Comparison (PIM-PBO) LSM (Sensitivity: OC ANCOVA, W6): −1.9 | PANSS Total, LSM Change from Baseline at W6 (Sensitivity: OC in PP, MMRM): −15.6 | PANSS Total, Effect Size [6]: 0.19 | PANSS Total, Treatment group Comparison (PIM-PBO) LSM [6]: −2.3
